target: T1, Recombinant human liver GK1 (GST-GK) (Homo sapiens, UniProt P35557); experiment: Glucokinase in vitro assay (G6PDH-coupled NADH generation, OD340); assay type: biochemical; conditions: 5 mM D-glucose, 30° C., pH 7.1, 10% DMSO
T1 construct: made in house; host or cells: E. coli
T1 sequence (P35557 1-466 isoform P35557-2): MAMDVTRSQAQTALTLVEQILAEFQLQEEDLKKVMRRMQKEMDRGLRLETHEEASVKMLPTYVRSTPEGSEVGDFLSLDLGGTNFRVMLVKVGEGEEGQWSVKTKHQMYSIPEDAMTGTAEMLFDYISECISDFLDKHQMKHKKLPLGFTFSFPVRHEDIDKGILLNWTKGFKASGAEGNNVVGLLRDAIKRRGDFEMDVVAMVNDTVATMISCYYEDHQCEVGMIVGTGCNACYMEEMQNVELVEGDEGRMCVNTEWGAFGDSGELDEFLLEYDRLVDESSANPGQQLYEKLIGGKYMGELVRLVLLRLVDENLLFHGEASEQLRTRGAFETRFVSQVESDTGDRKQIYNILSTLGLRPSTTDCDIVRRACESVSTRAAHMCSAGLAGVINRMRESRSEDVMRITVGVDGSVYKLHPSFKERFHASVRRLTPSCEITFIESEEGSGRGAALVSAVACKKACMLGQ
Experimental: Glucokinase In Vitro Assay Protocol: Glucokinase (GK) was assayed by coupling the production of glucose-6-phosphate to the generation of NADH with glucose-6-phosphate dehydrogenase (G6PDH, 0.75-1 k units/mg; Boehringer Mannheim, Indianapolis, Ind.) from Leuconostoc mesenteroides as the coupling enzyme (Scheme 2):
Recombinant human liver GK1 was expressed in E. coli as a glutathione S-transferase fusion protein (GST-GK) [Liang et al, 1995] and was purified by chromatography over a glutathione-Sepharose 4B affinity column using the procedure provided by the manufacturer (Amersham Pharmacia Biotech, Piscataway, N.J.).
The assay was conducted at 30° C. in a flat bottom 96-well tissue culture plate from Costar (Cambridge, Mass.) with a final incubation volume of 120 μL. The incubation reaction contained the following: 25 mM Hepes buffer (pH 7.1), 25 mM KCl, 5 mM D-glucose, 1 mM ATP, 1.8 mM NAD, 2 mM MgCl2, 1 μM sorbitol-6-phosphate, 1 mM dithiothreitol, test drug or 10% DMSO, ˜7 units/ml G6PDH, and GK (see below). All organic reagents were >98% pure and were from Boehringer Mannheim with the exceptions of D-glucose and Hepes which were from Sigma Chemical Co, St Louis, Mo. Test compounds were dissolved in DMSO and were added to the incubation reaction minus GST-GK in a volume of 12 μL to yield a final DMSO concentration of 10%. This mix was pre-incubated in the temperature controlled chamber of a SPECTRAmax 250 microplate spectrophotometer (Molecular Devices Corporation, Sunnyvale, Calif.) for 10 minutes to allow temperature equilibrium and then the reaction was started by the addition of 20 μL GST-GK.
After addition of enzyme, the increase in optical density (OD) at 340 nm was monitored spectrophotometrically to determine the rate of change (OD340 per min). The GK activity (OD340/min) in control wells (10% DMSO minus GK activators) was compared with the activity in wells containing test GK activators, and the concentration of activator that produced a 50% increase in the activity of GK, i.e., the SC1.5, was calculated. The table below provides the in vitro glucokinase activity for the compounds in the Examples: […]

SC1.5 average (concentration of activator that produced a 50% increase in the activity of GK) [µM]	Compound
26.185	CC(C)(O)Cn1ccc(NC(=O)[C@@H](CC2CCCC2)n2ncc(Oc3ccc(F)cc3F)cc2=O)n1 [Example 32B, (R)-3-Cyclopentyl-2-[4-(2,4-difluoro-phenoxy)-6-oxo-6H-pyridazin-1-yl]-N-[1-(2-hydroxy-2-methyl-propyl)-1H-pyrazol-3-yl]-propionamide]
0.265	CC(C)(O)Cn1ccc(NC(=O)[C@H](CC2CCCC2)n2ncc(Oc3cc(F)ccc3F)cc2=O)n1 [Example 33A, (S)-3-Cyclopentyl-2-[4-(2,5-difluoro-phenoxy)-6-oxo-6H-pyridazin-1-yl]-N-[1-(2-hydroxy-2-methyl-propyl)-1H-pyrazol-3-yl]-propionamide]
8.849	CC(C)(O)Cn1ccc(NC(=O)[C@@H](CC2CCCC2)n2ncc(Oc3cc(F)ccc3F)cc2=O)n1 [Example 33B, (R)-3-Cyclopentyl-2-[4-(2,5-difluoro-phenoxy)-6-oxo-6H-pyridazin-1-yl]-N-[1-(2-hydroxy-2-methyl-propyl)-1H-pyrazol-3-yl]-propionamide]
1.72	CC(C)(O)Cn1ccc(NC(=O)C(CC2CCCC2)n2ncc(Oc3ccccc3N3CCOCC3)cc2=O)n1 (centres unmarked) [Example 34, 3-Cyclopentyl-N-[1-(2-hydroxy-2-methyl-propyl)-1H-pyrazol-3-yl]-2-[4-(2-morpholin-4-yl-phenoxy)-6-oxo-6H-pyridazin-1-yl]-propionamide]
2.173	CC(C)(O)Cn1ccc(NC(=O)C(CC2CCCC2)n2ncc(Oc3cccc(Oc4ccccc4)c3)cc2=O)n1 (centres unmarked) [Example 35, 3-Cyclopentyl-N-[1-(2-hydroxy-2-methyl-propyl)-1H-pyrazol-3-yl]-2-[6-oxo-4-(3-phenoxy-phenoxy)-6H-pyridazin-1-yl]-propionamide]
0.034	CC(C)(O)Cn1ccc(NC(=O)[C@H](CC2CCCC2)n2ncc(Oc3c(F)cccc3F)cc2=O)n1 [Example 36A, (S)-3-Cyclopentyl-2-[4-(2,6-difluoro-phenoxy)-6-oxo-6H-pyridazin-1-yl]-N-[1-(2-hydroxy-2-methyl-propyl)-1H-pyrazol-3-yl]-propionamide]
1.596	CC(C)(O)Cn1ccc(NC(=O)[C@@H](CC2CCCC2)n2ncc(Oc3c(F)cccc3F)cc2=O)n1 [Example 36B, (R)-3-Cyclopentyl-2-[4-(2,6-difluoro-phenoxy)-6-oxo-6H-pyridazin-1-yl]-N-[1-(2-hydroxy-2-methyl-propyl)-1H-pyrazol-3-yl]-propionamide]
0.566	CC(C)(O)Cn1ccc(NC(=O)C(CC2CCCC2)n2ncc(Oc3cccc4cnccc34)cc2=O)n1 (centres unmarked) [Example 37, 3-Cyclopentyl-N-[1-(2-hydroxy-2-methyl-propyl)-1H-pyrazol-3-yl]-2-[4-(isoquinolin-5-yloxy)-6-oxo-6H-pyridazin-1-yl]-propionamide]
0.238	CC(C)(O)Cn1ccc(NC(=O)[C@H](CC2CCCC2)n2ncc(Oc3cccc4cnccc34)cc2=O)n1 [Example 37A, (S)-3-Cyclopentyl-N-[1-(2-hydroxy-2-methyl-propyl)-1H-pyrazol-3-yl]-2-[4-(isoquinolin-5-yloxy)-6-oxo-6H-pyridazin-1-yl]-propionamide]
18.488	CC(C)(O)Cn1ccc(NC(=O)[C@@H](CC2CCCC2)n2ncc(Oc3cccc4cnccc34)cc2=O)n1 [Example 37B, (R)-3-Cyclopentyl-N-[1-(2-hydroxy-2-methyl-propyl)-1H-pyrazol-3-yl]-2-[4-(isoquinolin-5-yloxy)-6-oxo-6H-pyridazin-1-yl]-propionamide]
0.776	CC(C)(O)Cn1ccc(NC(=O)C(CC2CCCC2)n2ncc(Oc3cccc4ncccc34)cc2=O)n1 (centres unmarked) [Example 38, 3-Cyclopentyl-N-[1-(2-hydroxy-2-methyl-propyl)-1H-pyrazol-3-yl]-2-[6-oxo-4-(quinolin-5-yloxy)-6H-pyridazin-1-yl]-propionamide]
0.499	CC(C)(O)Cn1ccc(NC(=O)C(CC2CCCC2)n2ncc(Oc3cccc4cccnc34)cc2=O)n1 (centres unmarked) [Example 39, 3-Cyclopentyl-N-[1-(2-hydroxy-2-methyl-propyl)-1H-pyrazol-3-yl]-2-[6-oxo-4-(quinolin-8-yloxy)-6H-pyridazin-1-yl]-propionamide]
0.228	CC(=O)c1ccccc1Oc1cnn(C(CC2CCCC2)C(=O)Nc2ccn(CC(C)(C)O)n2)c(=O)c1 (centres unmarked) [Example 40, 2-[4-(2-Acetyl-phenoxy)-6-oxo-6H-pyridazin-1-yl]-3-cyclopentyl-N-[1-(2-hydroxy-2-methyl-propyl)-1H-pyrazol-3-yl]-propionamide]
8.414	CC(C)(O)Cn1ccc(NC(=O)C(CC2CCCC2)n2ncc(Oc3ccccc3C(=O)N3CCCC3)cc2=O)n1 (centres unmarked) [Example 41, 3-Cyclopentyl-N-[1-(2-hydroxy-2-methyl-propyl)-1H-pyrazol-3-yl]-2-{6-oxo-4-[2-(pyrrolidine-1-carbonyl)-phenoxy]-6H-pyridazin-1-yl}-propionamide]
0.349	CC(C)CC(C(=O)Nc1ccn(CC(C)(C)O)n1)n1ncc(Oc2c(F)cccc2F)cc1=O (centres unmarked) [Example 42, 2-[4-(2,6-Difluoro-phenoxy)-6-oxo-6H-pyridazin-1-yl]-4-methyl-pentanoic acid [1-(2-hydroxy-2-methyl-propyl)-1H-pyrazol-3-yl]-amide]
0.17	CC(C)C[C@@H](C(=O)Nc1ccn(CC(C)(C)O)n1)n1ncc(Oc2c(F)cccc2F)cc1=O [Example 42A, (S)-2-[4-(2,6-Difluoro-phenoxy)-6-oxo-6H-pyridazin-1-yl]-4-methyl-pentanoic acid [1-(2-hydroxy-2-methyl-propyl)-1H-pyrazol-3-yl]-amide]
5.981	CC(C)C[C@H](C(=O)Nc1ccn(CC(C)(C)O)n1)n1ncc(Oc2c(F)cccc2F)cc1=O [Example 42B, (R)-2-[4-(2,6-Difluoro-phenoxy)-6-oxo-6H-pyridazin-1-yl]-4-methyl-pentanoic acid [1-(2-hydroxy-2-methyl-propyl)-1H-pyrazol-3-yl]-amide]
0.232	CC(C)(O)Cn1ccc(NC(=O)C(CC2CCOCC2)n2ncc(Oc3c(F)cccc3F)cc2=O)n1 (centres unmarked) [Example 43, 2-[4-(2,6-Difluoro-phenoxy)-6-oxo-6H-pyridazin-1-yl]-N-[1-(2-hydroxy-2-methyl-propyl)-1H-pyrazol-3-yl]-3-(tetrahydro-pyran-4-yl)-propionamide]
0.148	CC(C)(O)Cn1ccc(NC(=O)[C@H](CC2CCOCC2)n2ncc(Oc3c(F)cccc3F)cc2=O)n1 [Example 43A, (S)-2-[4-(2,6-Difluoro-phenoxy)-6-oxo-6H-pyridazin-1-yl]-N-[1-(2-hydroxy-2-methyl-propyl)-1H-pyrazol-3-yl]-3-(tetrahydro-pyran-4-yl)-propionamide]
7.536	CC(C)(O)Cn1ccc(NC(=O)[C@@H](CC2CCOCC2)n2ncc(Oc3c(F)cccc3F)cc2=O)n1 [Example 43B, (R)-2-[4-(2,6-Difluoro-phenoxy)-6-oxo-6H-pyridazin-1-yl]-N-[1-(2-hydroxy-2-methyl-propyl)-1H-pyrazol-3-yl]-3-(tetrahydro-pyran-4-yl)-propionamide]

From patent US8258134B2, “Pyridazinone glucokinase activators” (Hoffmann-La Roche Inc., priority 2008, dated 2012)
